Results as given in publication PMC12680861, “Comparative analysis of LJ-4378 and tirzepatide in mouse models of obesity and weight regain” (Archives of Pharmacal Research, 2025).

Legend:
[1] = test system: WR mice; test: Weight rebound (WR) model: body weight, food intake, adiposity after treatment cessation; format: in vivo, C57BL/6 J male mice; conditions: for body weight after treatment cessation: 4 weeks post-cessation on HFD; for food intake after withdrawal: 16 days after cessation; for body weight regained over 4 weeks as a percentage of the initial weight loss: WR groups, 4 weeks after 14-day treatment; for food intake during the 14-day treatment: measured every 2 days
Description: (§1) To assess post-treatment weight rebound (WR), the mice previously treated with vehicle, LJ-4378, or TZP were maintained on HFD for an additional 4 weeks following treatment cessation. Treatment protocols for the WR groups were identical to those of the HFD groups. In total, nine experimental groups were established: NCD + CTL, NCD + LJ, NCD + TZP; HFD + CTL, HFD + LJ, HFD + TZP; and WR + CTL, WR + LJ, WR + TZP. The volume of oxygen consumed (VO2), carbon dioxide produced (VCO2), respiratory exchange ratio (RER), energy expenditure, activity, and food intake were measured with PhenoMaster (TSE Systems, Bad Homburg, Germany). Indirect calorimetry was performed under controlled conditions, with a stable ambient temperature of 24 °C and a 12 h light/12-h dark cycle. Mice fed HFD were administered vehicle, LJ-4378, or TZP for 14 days, and the last 2 days of treatment were conducted during indirect calorimetry analysis. The WR model was examined by indirect calorimetry after 2 and 4 weeks of the weight regaining phase.
Additionally, food consumption was measured every 2 days during the 14-day treatment period and for an additional 16 days post-administration.
Body composition and micro-CT analysis were performed after the treatment with vehicle, LJ-4378, or TZP for the indicated duration in HFD-fed mice and WR mice.
A nuclear magnetic resonance (NMR) technology system with EchoMRI-700 (Echo Medical Systems, […]) was used to analyze body composition.
To assess the abdominal fat volume, we employed the Quantum GX2 micro-CT imaging system (PerkinElmer, Waltham, MA, USA). Mice were anesthetized with isoflurane and positioned on the micro-CT bed for imaging of the abdominal region, defined from the proximal end of the L1 vertebra to the distal end of the L5 vertebra. Imaging was performed at 90 kV/88 µA with a field of view of 72 mm, a pixel size of 90 µm, and a 2-min acquisition time at standard resolution. Visceral, subcutaneous, and total abdominal fat volumes were quantified using AnalyzeDirect software (ver. 12.0, Overland Park, KS, USA).

[2] = test system: WR mice; test: WR model: glucose metabolism, gWAT inflammation, hepatic steatosis at 4 weeks post-treatment; format: in vivo, C57BL/6 J male mice; conditions: for macrophage marker F4/80 and CLS formation in gWAT: 4 weeks of the weight regaining phase
Description: as §1
For protein extraction, we utilized PRO-RERP Protein Extraction Solution (17081, iNtRON Biotechnology, Gyeonggi-do, Korea), supplemented with […] Protease Inhibitor (S8820, Sigma, St. Louis, MO, USA) and PhosSTOP phosphatase inhibitor (#4906837001, Roche, Basel, Switzerland). Protein concentrations were determined using the Pierce BCA protein assay Kit (#23227, Thermo Fisher, Waltham, Massachusetts, USA) by measuring absorbance at 562 nm with a MultiSkan GO spectrophotometer (Thermo Fisher). The quantified proteins were loaded and separated in 12% SDS-PAGE gels and transferred to polyvinylidene difluoride (PVDF) membranes (Bio-Rad, Hercules, CA, USA). Membranes were blocked in 5% bovine serum albumin or skim milk in Tris-buffered saline with 0.1% Tween 20 (TBST) for 1 h, followed by overnight incubation with primary antibodies. The next day, membranes were washed 3 times with TBST and incubated for 1 h with horseradish peroxidase (HRP)-conjugated secondary antibody: Goat anti-rabbit (1:3000, #31460, Thermo Fisher) and Goat anti-Mouse IgG (1:3000, 115–035-174, Jackson ImmunoResearch). After secondary antibody incubation, membranes were washed 3 times with TBST and detected with the Fusion Solo chemiluminescence imaging system (Vilber Lourmat, France). EvolutionCapt (version 17.03) software and the ImageJ (National Institutes of Health, Bethesda, MD, USA) program were used for analysis and to quantify the protein level.
RT-qPCR was conducted according to the method (Cho et al. [2022]). The tissue samples were lysed in TRIzol (#15596018, Thermo Fisher), and the total RNA was extracted. The extracted RNA was synthesized into cDNA using the cDNA Reverse Transcription Kit (Applied Biosystems, Waltham, MA, USA). mRNA levels were quantified using iQ SYBR Green Supermix on the CFX Connect Real-time system (Bio-rad). Relative expression levels of each gene were calculated using the […] method, with the reference housekeeping gene as follows: Peptidylprolyl isomerase A (Ppia) for adipose tissue and glyceraldehyde-3-phosphate dehydrogenase (Gapdh) for hypothalamus.
The glucose tolerance test was conducted on mice fasted for 12 h with ad libitum access to water. Mice were intraperitoneally injected with 20% D-( +)-glucose (2 g/kg body weight, #49139, Sigma), and blood glucose levels were measured at each time point using a Gluco Doctor Top meter and strip (Allmedicus, South Korea).
Adipose tissues were fixed in 10% formalin (HT50128, Sigma) for 2 days and made into paraffin slides. The deparaffinized sections were stained with ClearView Staining Hematoxylin (MA010081, BBC Biochemical, Mount Vernon, WA, USA) and Eosin Y Alcoholic (#3610, BBC Biochemical) solution. The crown-like structure formation of gonadal white adipose tissue (gWAT) and triglyceride (TG) accumulation in the liver are observed using hematoxylin and eosin staining on paraffin slides. The images were captured using Nikon Elements (NIS BR Analysis ver 5.10.00). […]

[3] = 4 weeks after treatment cessation

| Compound | gWAT and visceral abdominal fat, compared with the TZP group [1, 3] | whole-body fat ratio, LJ-4378 versus TZP [1, 3] | body weight after treatment cessation [1] | food intake after withdrawal [1] | body weight regained over 4 weeks as a percentage of the initial weight loss [1] [%] | food intake during the 14-day treatment [1] | macrophage marker F4/80 and CLS formation in gWAT [2] | fasting glucose levels, versus TZP-treated group ([2]; 4 weeks post-treatment, WR) | glucose clearance in glucose tolerance test, versus TZP-treated group ([2]; 4 weeks post-treatment, WR) | hepatic triglyceride (TG) deposition, versus TZP ([2]; 4 weeks post-treatment, WR) | Tnf-α and Arg1 mRNA levels in gWAT ([2]; after 4 weeks of WR) |
| --- | --- | --- | --- | --- | --- | --- | --- | --- | --- | --- | --- |
| CCCCC#Cc1nc(N)c2ncn([C@@H]3SC[C@@H](O)[C@H]3O)c2n1 [LJ-4378] | reduction | significantly lower | maintained a relatively low body weight | did not alter food intake during or after treatment | 88 | did not alter food intake during or after treatment | maintained lower levels of macrophage accumulation | lower | enhanced glucose clearance | significantly lower | reduced Tnf-α and increased Arg1 mRNA levels were maintained |
| Tirzepatide [TZP, reference compound] |  |  | rapid weight regain | sharp rebound in food consumption | 127 | significantly suppressed food intake | re-elevated |  |  |  |  |
